PMC4236622 (Cancer Chemotherapy and Pharmacology, 2014)

Assays:
[1] = humans, cited from earlier work; for time post-dose at which concentrations fall below 0.1 ng/mL: following irinotecan infusion (350 mg/m2 every 21 days), reference not given
NCI-N87 gastric tumor = assay: Activity in NCI-N87 gastric tumor xenograft model; assay type: in vivo, mouse
Source text: (§1) Tumor volume was estimated as described above.
(§2) Studies were terminated on Days 59 (HT29), 61 (NCI-H460), 72 (MCF-7), 60 (A2780, q7dx3), 76 (A2780 qdx1), and 84 (NCI-N87).
(§3) Kaplan–Meier plots were constructed to show the percentage of animals remaining in the study to perform the logrank test. Median tumor growth curves show group median tumor volumes as a function of time. When an animal exited the study due to tumor size, the final tumor volume recorded for the animal was included with the data used to calculate the group median tumor volume at subsequent time points.

HT29 colon tumor [2] = assay: Activity in HT29 colon tumor xenograft model; assay type: in vivo, mouse; conditions: for Median TTE: endpoint 1,000 mm3; for Survivors not reaching tumor endpoint: endpoint 1,000 mm3 or Day 73; for Tumor regression, Complete / Tumor regression, Partial: HT29 colon tumor model, animals/group
Source text: as §1, §2, §3

[3] = Tolerability in mouse xenograft studies (body weight, mortality); assay type: in vivo; conditions: all doses, all xenograft models
Source text: as §1

MCF-7 breast tumor = assay: Activity in MCF-7 breast tumor xenograft model; assay type: in vivo, mouse
Source text: as §1, §2, §3

A2780 ovarian tumor = assay: Activity in A2780 ovarian tumor xenograft model; assay type: in vivo, mouse
Source text: as §1, §2, §3

NCI-H460 lung tumor [4] = assay: Activity in NCI-H460 lung tumor xenograft model; assay type: in vivo, mouse; conditions: for Median TTE: endpoint 1,500 mm3; for Survivors not reaching tumor endpoint: endpoint 1,500 mm3 or Day 57; for Tumor regression, Complete / Tumor regression, Partial: NCI-H460 lung tumor model, animals/group
Source text: as §1, §2, §3

[5] = mice; no reference given; cited from earlier work
[6] = Plasma and tumor pharmacokinetics in tumor-bearing mice (HT29 and NCI-H460, model not distinguished); conditions: after conventional irinotecan 40 mg/kg iv Days 0, 4, 8
Protocol: (§4) The length and width of each tumor was recorded 2–3 times a week, and the corresponding tumor volume was estimated using the formula L × W ^2/2 = mm^3, where L and W refer to the larger and smaller perpendicular tumor dimensions, respectively. Animals found moribund or with tumors ≥4,000 mm^3, ulcerated, or sloughed off were euthanized prior to scheduled termination. […] Plasma was harvested, frozen on dry ice, and stored at −80 °C until assayed. Immediately following blood collection, animals were euthanized, and the tumors were excised, frozen in liquid nitrogen, and stored at −80 °C until assayed.

HT29 colon tumor [7] = assay: Tumor PK/PD study in HT29 tumor-bearing mice (tumor volume, inhibitory Emax model); assay type: in vivo, mouse; conditions: Emax fixed at 1
Protocol: as §4
(§5) Inhibitory E max response PK/PD models based on the Gompertz equation [32] were developed for both tumor types to represent the rate of tumor growth as a function of tumor SN38 concentration. A schematic diagram of the PK/PD model is shown in Online Resource 1. […] The PD parameter values k gr (tumor intrinsic growth rate; day^−1), Limit (limit of tumor growth), and EC 50 (half-maximal effective inhibitory concentrations; μg/g) were optimized using Runge–Kutta 4 integration and the multiple-fit curve fitting module of Berkeley Madonna.

NCI-H460 lung tumor [8] = assay: Tumor PK/PD study in NCI-H460 tumor-bearing mice (tumor volume, inhibitory Emax model); assay type: in vivo, mouse; conditions: Emax fixed at 1
Protocol: as §4, §5

[9] = Pharmacokinetics across nonclinical species (mouse, rat, dog); conditions: rats and dogs, after conventional irinotecan
Protocol: Blood samples were collected via a peripheral vein into blood collection tubes containing 1/20th the plasma volume of a dimethyl sulfoxide solution containing 50 mM phenylmethyl sulfonyl fluoride and 1 % acetic acid (v/v). Plasma was harvested by centrifugation at 2,100×g for 20 min at 4 °C. Plasma was further stabilized by addition of 1 % acetic acid and stored at −80 °C until assayed.
Tumor tissue samples were homogenized in a 9× volume of homogenization buffer (containing sodium fluoride, phenylmethyl sulfonyl fluoride, and sodium dodecyl sulfate) prior to extraction of analytes. SN38 from tumor homogenate was extracted using protein precipitation with acetonitrile and quantified by LC–MS/MS using SN38 calibration standards. LC–MS/MS used a Synergy Hydro, 3 µm, 50 × 2.0-mm column, operated at 50 °C, at a flow rate of 0.4 mL/min with a gradient consisting of 0.1 % formic acid in water and 0.1 % formic acid in acetonitrile, coupled to an API 4000 (Applied Biosystems). […] The predicted mouse and measured rat and dog concentration–time profiles were analyzed with noncompartmental methods within WinNonlin (Professional version 5.2; Pharsight Corporation, Mountain View, CA) to estimate customary PK parameters.

[10] = parameters: method as in PMID 1651156; conditions: cited from earlier work
[11] = NCI-N87 gastric tumor model, 60 mg/kg Q7dx3 iv, animals/group
[12] = MCF-7 breast tumor model, 40 mg/kg Q4dx3 iv, animals/group
[13] = A2780 ovarian tumor model, 100 mg/kg Q7dx3 iv, animals/group

CCc1c2c(nc3ccc(OC(=O)N4CCC(N5CCCCC5)CC4)cc13)-c1cc3c(c(=O)n1C2)COC(=O)[C@]3(O)CC [Irinotecan]
time post-dose at which concentrations fall below 0.1 ng/mL [1]: 5 to 7 days
TGD (NCI-N87 gastric tumor; NCI-N87, 60 mg/kg Q7dx3 iv): 12 days
Median TTE (NCI-N87 gastric tumor; NCI-N87, 60 mg/kg Q7dx3 iv, endpoint 800 mm3): 30 days
Survivors not reaching tumor endpoint (NCI-N87 gastric tumor; NCI-N87, 60 mg/kg Q7dx3 iv, endpoint 800 mm3 or Day 84): 0/10
Tumor regression, Complete (NCI-N87 gastric tumor; [11]): 0/10
Tumor regression, Partial (NCI-N87 gastric tumor; [11]): 0/10
TGD (HT29 colon tumor [2]; HT29, 40 mg/kg Q4dx3 iv): 10 days
Median TTE (HT29 colon tumor [2]; HT29, 40 mg/kg Q4dx3 iv): 26 days
Survivors not reaching tumor endpoint (HT29 colon tumor [2]; HT29, 40 mg/kg Q4dx3 iv): 0/10
TGD (HT29 colon tumor [2]; HT29, 90 mg/kg Q4dx3 iv): 11 days
Median TTE (HT29 colon tumor [2]; HT29, 90 mg/kg Q4dx3 iv): 27 days
Survivors not reaching tumor endpoint (HT29 colon tumor [2]; HT29, 90 mg/kg Q4dx3 iv): 0/10
regression responses (animals) (HT29 colon tumor [2]; HT29, Q4dx3): no tumor regression
Tumor regression, Complete (HT29 colon tumor [2]; 40 mg/kg Q4dx3 iv): 0/10
Tumor regression, Partial (HT29 colon tumor [2]; 40 mg/kg Q4dx3 iv): 0/10
Tumor regression, Complete (HT29 colon tumor [2]; 90 mg/kg Q4dx3 iv): 0/10
Tumor regression, Partial (HT29 colon tumor [2]; 90 mg/kg Q4dx3 iv): 0/10
maximum body weight loss [3]: ≤ 16%
treatment-related deaths [3]: no treatment-related deaths
TGD (MCF-7 breast tumor; MCF-7, 40 mg/kg Q4dx3 iv): 22 days
Median TTE (MCF-7 breast tumor; MCF-7, 40 mg/kg Q4dx3 iv, endpoint 700 mm3): 59 days
Survivors not reaching tumor endpoint (MCF-7 breast tumor; MCF-7, 40 mg/kg Q4dx3 iv, endpoint 700 mm3 or Day 73): 2/10
regression responses / regression rate (animals) (MCF-7 breast tumor; MCF-7, Q4dx3): ≤ 30%
Tumor regression, Complete (MCF-7 breast tumor; [12]): 3/10
Tumor regression, Partial (MCF-7 breast tumor; [12]): 0/10
TGD (A2780 ovarian tumor; A2780, 100 mg/kg Q7dx3 iv): 15 days
Median TTE (A2780 ovarian tumor; A2780, 100 mg/kg Q7dx3 iv, endpoint 2,000 mm3): 29 days
Survivors not reaching tumor endpoint (A2780 ovarian tumor; A2780, 100 mg/kg Q7dx3 iv, endpoint 2,000 mm3 or Day 60): 0/10
Tumor regression, Complete (A2780 ovarian tumor; [13]): 0/10
Tumor regression, Partial (A2780 ovarian tumor; [13]): 0/10
regression responses (animals) (NCI-H460 lung tumor [4]; H460, Q4dx3): no tumor regression
TGD (NCI-H460 lung tumor [4]; NCI-H460, 40 mg/kg Q4dx3 iv): 11 days
Median TTE (NCI-H460 lung tumor [4]; NCI-H460, 40 mg/kg Q4dx3 iv): 23 days
Survivors not reaching tumor endpoint (NCI-H460 lung tumor [4]; NCI-H460, 40 mg/kg Q4dx3 iv): 0/10
TGD (NCI-H460 lung tumor [4]; NCI-H460, 90 mg/kg Q4dx3 iv): 12 days
Median TTE (NCI-H460 lung tumor [4]; NCI-H460, 90 mg/kg Q4dx3 iv): 24 days
Survivors not reaching tumor endpoint (NCI-H460 lung tumor [4]; NCI-H460, 90 mg/kg Q4dx3 iv): 0/10
Tumor regression, Complete (NCI-H460 lung tumor [4]; 40 mg/kg Q4dx3 iv): 0/10
Tumor regression, Partial (NCI-H460 lung tumor [4]; 40 mg/kg Q4dx3 iv): 0/10
Tumor regression, Complete (NCI-H460 lung tumor [4]; 90 mg/kg Q4dx3 iv): 0/10
Tumor regression, Partial (NCI-H460 lung tumor [4]; 90 mg/kg Q4dx3 iv): 0/10
single-dose LD10 [5]: ~ 120 mg/kg
plasma irinotecan AUC [6]: 1.2 µg·days/mL
tumor irinotecan AUC [6]: 4.2 µg·days/g

CCc1c2c(nc3ccc(O)cc13)-c1cc3c(c(=O)n1C2)COC(=O)[C@]3(O)CC [SN38, 10-hydroxy-7-ethyl camptothecin]
t1/2 of SN38 ([1]; conventional irinotecan): 24 to 47 h
time post-dose at which concentrations fall below 0.1 ng/mL [1]: 5 to 7 days
EC50 (half-maximal effective inhibitory tumor SN38 concentration) (HT29 colon tumor [7]): 0.20 µg/g
EC50 (half-maximal effective inhibitory tumor SN38 concentration) (NCI-H460 lung tumor [8]): 1.2 µg/g
time post-dose at which plasma SN38 was undetectable [9]: 24 h
cytotoxicity in vitro, potency compared with irinotecan [10]: 100- to 1,000 fold
